Assays:
Assay in all cases: relative viability (nuclei count vs DMSO), 5 days (fraction); higher = more cells survive
Zebularine + Linsitinib = compound: O=c1ncccn1[C@@H]1O[C@H](CO)[C@@H](O)[C@H]1O [Zebularine] + C[C@]1(O)C[C@@H](c2nc(-c3ccc4ccc(-c5ccccc5)nc4c3)c3c(N)nccn32)C1 [Linsitinib] (partner 1 µM)
In short: (§1)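 Lung cancer cell lines were pin-tool dosed in 1536-well plates on the day after seeding, with either a lone drug or a fixed anchor-drug dose plus five library-drug doses (not always all listed) in √10 steps. Nuclei were counted on 4× images after 5 days. Relative viability is the ratio of treated-well to vehicle-well nuclei counts, with each value a median of duplicate plates.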

Zebularine + Luminespib = compound: O=c1ncccn1[C@@H]1O[C@H](CO)[C@@H](O)[C@H]1O [Zebularine] + CCNC(=O)c1noc(-c2cc(C(C)C)c(O)cc2O)c1-c1ccc(CN2CCOCC2)cc1 [Luminespib] (partner 0.01 µM)
In short: as §1

Zebularine + Pictilisib = compound: O=c1ncccn1[C@@H]1O[C@H](CO)[C@@H](O)[C@H]1O [Zebularine] + CS(=O)(=O)N1CCN(Cc2cc3nc(-c4cccc5[nH]ncc45)nc(N4CCOCC4)c3s2)CC1 [Pictilisib] (partner 1 µM)
In short: as §1

Zebularine + Foretinib = compound: O=c1ncccn1[C@@H]1O[C@H](CO)[C@@H](O)[C@H]1O [Zebularine] + COc1cc2c(Oc3ccc(NC(=O)C4(C(=O)Nc5ccc(F)cc5)CC4)cc3F)ccnc2cc1OCCCN1CCOCC1 [Foretinib] (partner 0.25 µM)
In short: as §1

## UMC-11
Zebularine + Linsitinib; first compound 1 µM
  relative viability: 1.21
Zebularine + Linsitinib; first compound 3.162 µM
  relative viability: 1.02
Zebularine + Linsitinib; first compound 10 µM
  relative viability: 0.691
Zebularine + Linsitinib; first compound 31.62 µM
  relative viability: 0.574
Zebularine + Linsitinib; first compound 100 µM
  relative viability: 0.418
Zebularine + Luminespib; first compound 1 µM
  relative viability: 1.06
Zebularine + Luminespib; first compound 3.162 µM
  relative viability: 0.996
Zebularine + Luminespib; first compound 10 µM
  relative viability: 0.686
Zebularine + Luminespib; first compound 31.62 µM
  relative viability: 0.62
Zebularine + Luminespib; first compound 100 µM
  relative viability: 0.316
Zebularine + Pictilisib; first compound 1 µM
  relative viability: 0.89
Zebularine + Pictilisib; first compound 3.162 µM
  relative viability: 0.451
Zebularine + Pictilisib; first compound 10 µM
  relative viability: 0.467
Zebularine + Pictilisib; first compound 31.62 µM
  relative viability: 0.653
Zebularine + Pictilisib; first compound 100 µM
  relative viability: 0.35
Zebularine + Foretinib; first compound 1 µM
  relative viability: 1
Zebularine + Foretinib; first compound 3.162 µM
  relative viability: 1.06
Zebularine + Foretinib; first compound 10 µM
  relative viability: 0.626
Zebularine + Foretinib; first compound 31.62 µM
  relative viability: 0.635
Zebularine + Foretinib; first compound 100 µM
  relative viability: 0.357
